Data published in US9156788B2, “TRPV3 modulators” (AbbVie Inc., priority 2010, dated 2015).

Biological target: T1, human TRPV3 (Homo sapiens, UniProt Q8NET8)
T1 construct: expressed in transfected cells
T1 sequence (Q8NET8 1-790): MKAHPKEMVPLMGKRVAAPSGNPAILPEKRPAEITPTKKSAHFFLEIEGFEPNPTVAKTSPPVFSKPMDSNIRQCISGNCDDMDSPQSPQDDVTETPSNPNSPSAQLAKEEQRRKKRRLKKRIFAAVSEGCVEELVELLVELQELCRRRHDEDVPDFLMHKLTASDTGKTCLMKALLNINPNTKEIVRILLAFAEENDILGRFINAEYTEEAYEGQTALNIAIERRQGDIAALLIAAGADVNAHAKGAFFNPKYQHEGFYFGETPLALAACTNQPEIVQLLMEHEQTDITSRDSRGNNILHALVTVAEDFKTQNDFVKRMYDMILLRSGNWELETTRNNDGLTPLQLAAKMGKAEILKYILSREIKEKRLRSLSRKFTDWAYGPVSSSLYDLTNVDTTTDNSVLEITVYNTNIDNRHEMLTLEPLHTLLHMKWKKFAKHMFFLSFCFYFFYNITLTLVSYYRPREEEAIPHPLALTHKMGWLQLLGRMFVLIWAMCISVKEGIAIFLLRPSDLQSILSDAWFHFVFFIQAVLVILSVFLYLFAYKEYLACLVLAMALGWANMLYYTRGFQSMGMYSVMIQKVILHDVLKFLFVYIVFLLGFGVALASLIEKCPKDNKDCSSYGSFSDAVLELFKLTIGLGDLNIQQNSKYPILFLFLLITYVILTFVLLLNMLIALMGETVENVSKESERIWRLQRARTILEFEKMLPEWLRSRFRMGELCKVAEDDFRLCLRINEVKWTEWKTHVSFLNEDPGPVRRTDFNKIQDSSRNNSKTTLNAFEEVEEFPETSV
Assay: Calcium flux assay (FLIPR TETRA), inhibition of 2-APB response
Type: cell-based
Conditions: recombinant HEK293 cells stably expressing human TRPV3; 2-APB at its EC50
Experimental: (i) In Vitro Methods-Calcium Flux Assays:
Experiments were conducted using the FLIPR^TETRA®. On the day prior to the experiment, recombinant HEK293 cells that stably express human and mouse TRPV3 were removed from tissue culture flasks and plated in growth medium at 20,000 cells/well into black-walled clear-bottom 384-well Biocoat™ poly-D-lysine assay plates (BD Biosciences, Bedford, Mass.) using a Multidrop® dispenser (ThermoScientific, Waltham, Mass.). On the day of the experiment, growth medium was removed, and the no-wash FLIPR® Calcium-4 dye (λEX=470-495 nm, λEM=515-575 nm; Molecular Devices, Sunnyvale, Calif.) was added to each well using the Multidrop® dispenser. Cells were incubated for 90-120 minutes in the dark. Compounds were dissolved in DMSO to prepare a 10 mM stock solution. The intensity of the fluorescence was captured and digitally transferred to an interfaced PC. The peak increase in fluorescence over baseline (relative fluorescence units) was calculated and expressed as the percentage of the maximal 2-APB (2-aminoethoxyldiphenyl borate) response (in the absence of compound).

Compound | IC50 [µM]
OC(c1ccccn1)C1(c2cc(F)cc(C(F)(F)F)c2)CCC1 (centres unmarked) [Example 14, {1-[3-fluoro-5-(trifluoromethyl)phenyl]cyclobutyl}(pyridin-2-yl)methanol] | 5.1 to 20
CS(=O)(=O)c1ccc(C2(C(O)c3ccccn3)CCC2)cc1 (centres unmarked) [Example 16, {1-[4-(methylsulfonyl)phenyl]cyclobutyl}(pyridin-2-yl)methanol] | 5.1 to 20
OC(c1ccccn1)C1(c2ccc(C(F)(F)F)c(F)c2)CCC1 (centres unmarked) [Example 17, {1-[3-fluoro-4-(trifluoromethyl)phenyl]cyclobutyl}(pyridin-2-yl)methanol] | 1.1 to 5
OC(c1ccccn1)C1(c2ccccn2)CCC1 (centres unmarked) [Example 19, pyridin-2-yl(1-pyridin-2-ylcyclobutyl)methanol] | 5.1 to 20
OC(c1ccccn1)C1(c2cccnc2)CCC1 (centres unmarked) [Example 20, pyridin-2-yl(1-pyridin-3-ylcyclobutyl)methanol] | 5.1 to 20
OC(c1ccccn1)C1(c2ccncc2)CCC1 (centres unmarked) [Example 21, pyridin-2-yl(1-pyridin-4-ylcyclobutyl)methanol] | 5.1 to 20
OC(c1ccccn1)C1(c2ccc(-c3ccccc3)cc2)CCC1 (centres unmarked) [Example 22, [1-(1,1′-biphenyl-4-yl)cyclobutyl](pyridin-2-yl)methanol] | 5.1 to 20
O[C@H](c1ccccn1)C1(c2ccc(C(F)(F)F)cc2F)CCC1 [Example 27, (S)-{1-[2-fluoro-4-(trifluoromethyl)phenyl]cyclobutyl}(pyridin-2-yl)methanol] | 0.501 to 1
OC(c1ncccn1)C1(c2ccccc2F)CCC1 (centres unmarked) [Example 32, [1-(2-fluorophenyl)cyclobutyl](pyrimidin-2-yl)methanol] | 5.1 to 20
OC(c1ncccn1)C1(c2ccc(F)cc2)CCC1 (centres unmarked) [Example 34, [1-(4-fluorophenyl)cyclobutyl](pyrimidin-2-yl)methanol] | 5.1 to 20
O[C@H](c1ncccn1)C1(c2ccc(C(F)(F)F)cc2)CCC1 [Example 41, (S)-pyrimidin-2-yl{1-[4-(trifluoromethyl)phenyl]cyclobutyl}methanol] | 5.1 to 20
O[C@@H](c1ncccn1)C1(c2ccc(C(F)(F)F)cc2)CCC1 [Example 42, (R)-pyrimidin-2-yl{1-[4-(trifluoromethyl)phenyl]cyclobutyl}methanol] | 1.1 to 5
CC(c1cccc(C(F)(F)F)c1)C1(C(O)c2ccccn2)CCC1 (centres unmarked) [Example 54, pyridin-2-yl(1-{1-[3-(trifluoromethyl)phenyl]ethyl}cyclobutyl)methanol] | 5.1 to 20
[1-(4-methylbenzyl)cyclobutyl](pyridin-2-yl)methanol [Example 52] | 1.1 to 5
